Results from patent publication US8106055B2, “Substituted amide compounds” (Gruenenthal GmbH, priority 2007, dated 2012).

Biological target: T1, bradykinin 1 receptor (B1R) of the rat (Rattus norvegicus, UniProt P97583)
T1 construct: expressed in transfected cells; host or cells: CHO K1 cells
T1 sequence (P97583 1-337): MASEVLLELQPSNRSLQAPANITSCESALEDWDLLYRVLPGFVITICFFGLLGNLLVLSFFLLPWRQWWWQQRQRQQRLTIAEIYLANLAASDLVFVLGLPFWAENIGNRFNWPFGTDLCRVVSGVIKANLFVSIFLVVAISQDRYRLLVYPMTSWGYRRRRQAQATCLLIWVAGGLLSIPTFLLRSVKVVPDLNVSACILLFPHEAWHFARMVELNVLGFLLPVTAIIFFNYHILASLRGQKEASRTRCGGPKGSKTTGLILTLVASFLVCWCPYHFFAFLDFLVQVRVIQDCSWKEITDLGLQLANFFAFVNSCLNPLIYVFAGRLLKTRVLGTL
Experiment: Functional investigation on the rat bradykinin 1 receptor (B1R), Ca2+ FLIPR assay in CHO K1 rB1R cells
Assay type: cell-based
Details: B1R antagonism rat; test substance 10 μM; Ca2+ FLIPR, CHO K1 rB1R cells
Procedure, shortened: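 Stably transfected CHO K1 cells loaded with Fluo-4; FLIPR Ca2+ fluorescence peak (ex 488/em 540 nm). Compound added first (agonism vs Lys-Des-Arg9-bradykinin ≥50 nM human, Des-Arg9-bradykinin 10 μM rat), then after 10-20 min agonist at EC80; antagonism as % inhibition, IC50 from concentration series, n=2-3, N≥2.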

Structure (SMILES) | B1R Ant. r [10 μM] % Inhibition
CN(C)C(c1cccc(F)c1)C1CCC(CCNC(=O)COCCN(Cc2ccccc2)S(=O)(=O)c2ccccc2)CC1 (stereo not shown) [Example 278] | 7%
COc1cc(C)c(S(=O)(=O)N2CCCC(OCC(=O)NC3CCC(C(c4cccc(F)c4)N(C)C)CC3)C2)c(C)c1C (stereo not shown) [Example 279] | 7%
COc1ccc(S(=O)(=O)N2CCCCC2COCC(=O)NCC2CCC(C(c3ccc(Cl)cc3)N(C)C)CC2)c(OC)c1 (stereo not shown) [Example 280] | 36%
COc1ccc(S(=O)(=O)N2CCCCC2COCC(=O)NCCC2CCC(C(c3cccc(F)c3)N(C)C)CC2)c(OC)c1 (stereo not shown) [Example 281] | 18%
CN(C)C(c1cccs1)C1CCC(NC(=O)COCCN(C)S(=O)(=O)c2ccc(OC(F)(F)F)cc2)CC1 (stereo not shown) [Example 282] | 20%
CN(C)C(c1cccc(F)c1)C1CCC(NC(=O)COC2CCN(S(=O)(=O)c3ccc(Cl)cc3Cl)C2)CC1 (stereo not shown) [Example 283] | 24%
CN(C)C(c1ccc(Cl)cc1)C1CCC(CNC(=O)COCCN(C)S(=O)(=O)c2ccc(Cl)cc2)CC1 (stereo not shown) [Example 284] | 32%
CN(C)C(c1ccc(F)cc1)C1CCC(CCNC(=O)COCCN(C)S(=O)(=O)c2c(Cl)cccc2Cl)CC1 (stereo not shown) [Example 285] | 75%
COc1cc(C)c(S(=O)(=O)N2CCC(OCC(=O)NC3CCC(C(c4cccc(F)c4)N(C)C)CC3)CC2)c(C)c1C (stereo not shown) [Example 286] | −2%
COc1cc(C)c(S(=O)(=O)N2CCC(OCC(=O)NCC3CCC(C(c4cccc(F)c4)N(C)C)CC3)CC2)c(C)c1C (stereo not shown) [Example 287] | −1%
COc1ccc(S(=O)(=O)N2Cc3ccccc3CC2COCC(=O)NCC2CCC(C(c3ccc(F)cc3)N(C)C)CC2)cc1 (stereo not shown) [Example 288] | 20%
CN(C)C(c1ccc(Cl)cc1)C1CCC(CCNC(=O)COCCN(C)S(=O)(=O)c2cccc(C(F)(F)F)c2)CC1 (stereo not shown) [Example 289] | 13%
CN(C)C(c1ccc(F)cc1)C1CCC(NC(=O)COC2CCN(S(=O)(=O)c3ccc(Cl)cc3Cl)C2)CC1 (stereo not shown) [Example 290] | 37%
CN(C)C(c1ccc(Cl)cc1)C1CCC(CCNC(=O)COCCN(C)S(=O)(=O)c2ccc(Cl)cc2Cl)CC1 (stereo not shown) [Example 291] | 36%
COc1ccc(S(=O)(=O)N(C)CCOCC(=O)NCCC2CCC(C(c3cccc(F)c3)N(C)C)CC2)cc1 (stereo not shown) [Example 292] | 34%
COc1ccc(S(=O)(=O)N(C)CCOCC(=O)NCCC2CCC(C(c3cccc(F)c3)N(C)C)CC2)cc1OC (stereo not shown) [Example 293] | 2%
CN(C)C(c1ccc(Cl)cc1)C1CCC(CNC(=O)COCC2CCCN(S(=O)(=O)c3ccccc3)C2)CC1 (stereo not shown) [Example 294] | 32%
CN(C)C(c1cccc(F)c1)C1CCC(CCNC(=O)COCC2CCCN(S(=O)(=O)c3ccccc3)C2)CC1 (stereo not shown) [Example 295] | 44%
CN(C)C(c1cccc(F)c1)C1CCC(CNC(=O)COCCN(Cc2ccccc2)S(=O)(=O)c2ccccc2)CC1 (stereo not shown) [Example 296] | 24%
CN(C)C(c1cccc(F)c1)C1CCC(NC(=O)COCCN(C)S(=O)(=O)c2cccc(C(F)(F)F)c2)CC1 (stereo not shown) [Example 297] | 16%
COc1cc(C)c(S(=O)(=O)N(C)CCOCC(=O)NCC2CCC(C(c3ccc(Cl)cc3)N(C)C)CC2)c(C)c1C (stereo not shown) [Example 298] | 14%
CN(C)C(c1ccc(Cl)cc1)C1CCC(CNC(=O)COC2CCN(S(=O)(=O)c3ccccc3)C2)CC1 (stereo not shown) [Example 299] | −13%
CN(C)C(c1ccccc1)C1CCC(CNC(=O)COC2CCN(S(=O)(=O)c3ccccc3)CC2)CC1 (stereo not shown) [Example 300] | 7%
CN(C)C(c1ccc(Cl)cc1)C1CCC(CNC(=O)COC2CCCN(S(=O)(=O)c3ccccc3)C2)CC1 (stereo not shown) [Example 301] | 18%
CN(C)C(c1cccc(F)c1)C1CCC(CNC(=O)COCCN(C)S(=O)(=O)c2cccc(C(F)(F)F)c2)CC1 (stereo not shown) [Example 302] | 0%
CN(C)C(c1cccc(F)c1)C1CCC(CNC(=O)COCCN(C)S(=O)(=O)c2ccc(OC(F)(F)F)cc2)CC1 (stereo not shown) [Example 303] | 29%

Structure (SMILES) | B1R Ant. r [10 μM] % Inhibition
Cc1ccc(S(=O)(=O)N2CCC(OCC(=O)NCC3CCC(C(c4ccc(Cl)cc4)N(C)C)CC3)C2)cc1 (stereo not shown) [Example 304] | 19%
Cc1ccc(S(=O)(=O)N2CCC(OCC(=O)NCCC3CCC(C(c4ccc(Cl)cc4)N(C)C)CC3)C2)cc1 (stereo not shown) [Example 305] | 29%
Cc1ccc(S(=O)(=O)N(C)CCOCC(=O)NCCC2CCC(C(c3ccc(Cl)cc3)N(C)C)CC2)cc1 (stereo not shown) [Example 306] | 14%
COc1cc(C)c(S(=O)(=O)N2CCC(OCC(=O)NCCC3CCC(C(c4cccc(F)c4)N(C)C)CC3)C2)c(C)c1 (stereo not shown) [Example 307] | 94%
CN(C)C(c1cccc(F)c1)C1CCC(CNC(=O)COCCN2CCN(S(=O)(=O)c3ccccc3)CC2)CC1 (stereo not shown) [Example 308] | 17%
CN(C)C(c1cccc(F)c1)C1CCC(CNC(=O)COC2CCCN(S(=O)(=O)c3ccccc3)C2)CC1 (stereo not shown) [Example 309] | −2%
CCN(CCOCC(=O)NCC1CCC(C(c2ccc(Cl)cc2)N(C)C)CC1)S(=O)(=O)c1c(C)cc(OC)c(C)c1C (stereo not shown) [Example 310] | 33%
COc1ccc(S(=O)(=O)N2CCCCC2COCC(=O)NCCC2CCC(C(c3ccc(Cl)cc3)N(C)C)CC2)cc1 (stereo not shown) [Example 311] | 64%
COc1ccc(S(=O)(=O)N2CCCCC2CCOCC(=O)NCC2CCC(C(c3ccc(Cl)cc3)N(C)C)CC2)cc1 (stereo not shown) [Example 312] | 31%
COc1ccc(S(=O)(=O)N2CCCC2COCC(=O)NCC2CCC(C(c3cccc(F)c3)N(C)C)CC2)cc1 (stereo not shown) [Example 313] | 31%
CN(C)C(c1ccc(Cl)cc1)C1CCC(CNC(=O)COCCN(C)S(=O)(=O)c2cccc(C(F)(F)F)c2)CC1 (stereo not shown) [Example 314] | 13%
COc1cc(C)c(S(=O)(=O)N(C)CCOCC(=O)NCCC2CCC(C(c3ccc(Cl)cc3)N(C)C)CC2)c(C)c1C (stereo not shown) [Example 317] | 18%
CN(C)C(c1ccc(Cl)cc1)C1CCC(CNC(=O)COCCN(C)S(=O)(=O)c2c(Cl)cc(Cl)cc2Cl)CC1 (stereo not shown) [Example 318] | 3%
COc1cc(C)c(S(=O)(=O)N2CCC(CCOCC(=O)NCC3CCC(C(c4cccc(F)c4)N(C)C)CC3)CC2)c(C)c1C (stereo not shown) [Example 319] | 11%
COc1cc(C)c(S(=O)(=O)N2CCN(CCOCC(=O)NCCC3CCC(C(c4ccc(Cl)cc4)N(C)C)CC3)CC2)c(C)c1C (stereo not shown) [Example 320] | −8%
COc1ccc(S(=O)(=O)N2CCCCC2COCC(=O)NCC2CCC(C(c3ccc(Cl)cc3)N(C)C)CC2)cc1 (stereo not shown) [Example 321] | 77%
COc1ccc(S(=O)(=O)N2CCCCC2COCC(=O)NC2CCC(C(c3cccc(F)c3)N(C)C)CC2)c(OC)c1 (stereo not shown) [Example 322] | 6%
COc1ccc(S(=O)(=O)N2CCC(OCC(=O)NC3CCC(C(c4cccc(F)c4)N(C)C)CC3)C2)cc1OC (stereo not shown) [Example 323] | 23%
COc1ccc(S(=O)(=O)N(C)CCOCC(=O)NCC2CCC(C(c3ccc(Cl)cc3)N(C)C)CC2)cc1 (stereo not shown) [Example 324] | 48%
CN(C)C(c1cccc(F)c1)C1CCC(CCNC(=O)COCCN2CCN(S(=O)(=O)c3ccccc3)CC2)CC1 (stereo not shown) [Example 325] | 6%
CN(C)C(c1cccc(F)c1)C1CCC(CCNC(=O)COC2CCCN(S(=O)(=O)c3ccccc3)C2)CC1 (stereo not shown) [Example 326] | −6%
CCN(CCOCC(=O)NCC1CCC(C(c2ccc(F)cc2)N(C)C)CC1)S(=O)(=O)c1c(C)cc(OC)c(C)c1C (stereo not shown) [Example 327] | 68%
COc1ccc(S(=O)(=O)N2CCCCC2COCC(=O)NCC2CCC(C(c3cccc(F)c3)N(C)C)CC2)cc1OC (stereo not shown) [Example 329] | 9%
CN(C)C(c1ccc(F)cc1)C1CCC(NC(=O)COC2CCN(S(=O)(=O)c3cccc(C(F)(F)F)c3)C2)CC1 (stereo not shown) [Example 330] | 16%
CN(C)C(c1ccc(Cl)cc1)C1CCC(CNC(=O)COC2CCN(S(=O)(=O)c3cccc(C(F)(F)F)c3)C2)CC1 (stereo not shown) [Example 331] | 44%
Cc1cc(C)c(S(=O)(=O)N2CCC(OCC(=O)NC3CCC(C(c4ccc(F)cc4)N(C)C)CC3)C2)c(C)c1 (stereo not shown) [Example 332] | 32%
